Data on two compounds can be found in ChEMBL document CHEMBL4507263, “Data for DCP probe BAY-474” (2021).

Data set [1] deals with Protein-tyrosine kinase 6 (Homo sapiens) (UniProt Q13882). In words: BRK (h) Millipore kinase activity assay. The settings on record: Compound concentration 1.0 uM.
For data set [2], the target named is Protein kinase C eta type (Homo sapiens) (UniProt P24723). In words: PKCeta (h) Millipore kinase activity assay. The note with it: Compound concentration 1.0 uM.
Data set [3] addresses Phosphorylase b kinase gamma catalytic chain, liver/testis isoform (Homo sapiens) (UniProt P15735). In words: PhKgamma2 (h) Millipore kinase activity assay. The note with it: Compound concentration 1.0 uM.
Data set [4] deals with GABA-A receptor; anion channel (Rattus norvegicus) (UniProt O09028+P15431+P18506+P18508+P19969+P20236+P23574+P23576+P28471+P28473+P30191+P62813+P63079+P63138+Q91ZM7+Q9ES14). In words: Inhibition of GABAA, Muscimol, Central at 10 µM in the Eurofins-Panlabs radioligand binding assay (Eurofins_assay_226500). Type of data set: protein-complex assay. The settings on record: Compound concentration 10.0 uM.

Data set [5] concerns the target Ephrin type-A receptor 5 (Homo sapiens) (UniProt P54756). In words: EphA5 (h) Millipore kinase activity assay. The settings on record: Compound concentration 1.0 uM.
Data set [6] deals with Alpha-1A adrenergic receptor (Homo sapiens) (UniProt P35348). The settings on record: Compound concentration 10.0 uM.
Data set [7] addresses Serine/threonine-protein kinase Sgk1 (Homo sapiens) (UniProt O00141). In words: SGK (h) Millipore kinase activity assay. The settings on record: Compound concentration 1.0 uM.
Data set [8] deals with LIM domain kinase 1 (Homo sapiens) (UniProt P53667). In words: LIMK1 (h) Millipore kinase activity assay. The settings on record: Compound concentration 1.0 uM.
For data set [9], the target named is RAC-beta serine/threonine-protein kinase (Homo sapiens) (UniProt P31751). In words: PKBbeta (h) Millipore kinase activity assay. The note with it: Compound concentration 1.0 uM.
The target in data set [10] is L-type calcium channel, benzothiazepine site (Cav1.2 alpha-1C) (Homo sapiens, UniProt Q13936). In words: Inhibition of Calcium Channel L-Type, Benzothiazepine at 10 µM in the Eurofins-Panlabs radioligand binding assay (Eurofins_assay_214510). The note with it: male, Wistar, rat, rat whole brain preparation, probe [3H] Diltiazem; compound concentration 10 uM; target entry is the homologue from another species. More on the design: ligand concentration 2 nM, non-specific ligand with concentration 10 µM Diltiazem, incubation time 3h, incubation temperature 4 °C.

Data set [11] has as its target Interleukin-1 receptor-associated kinase 4 (Homo sapiens) (UniProt Q9NWZ3). In words: IRAK4 (h) Millipore kinase activity assay. The settings on record: Compound concentration 1.0 uM.
Data set [12] addresses Myotonin-protein kinase (Homo sapiens) (UniProt Q09013). In words: DMPK (h) Millipore kinase activity assay. The note with it: Compound concentration 1.0 uM.
Data set [13] deals with Mast/stem cell growth factor receptor Kit (Homo sapiens) (UniProt P10721). In words: cKit (h) Millipore kinase activity assay. The note with it: Compound concentration 1.0 uM.
Data set [14] concerns the target Calcium/calmodulin-dependent protein kinase type 1 (Homo sapiens) (UniProt Q14012). In words: CaMKI (h) Millipore kinase activity assay. The note with it: Compound concentration 1.0 uM.
The target in data set [15] is Myosin-IIIb (Homo sapiens) (UniProt Q8WXR4). The note with it: Compound concentration 1000.0 nM.
The subject of data set [16] is Tyrosine-protein kinase ABL1 (Homo sapiens), P00519 [Q252H]. The settings on record: Compound concentration 1000.0 nM.
Data set [17] addresses Serine/threonine-protein kinase 32C (Homo sapiens) (UniProt Q86UX6). The note with it: Compound concentration 1000.0 nM.
The target of data set [18] is Mitogen-activated protein kinase kinase kinase 2 (Homo sapiens) (UniProt Q9Y2U5). The note with it: Compound concentration 1000.0 nM.
In data set [19] the target is Serine/threonine-protein kinase 36 (Homo sapiens) (UniProt Q9NRP7). The note with it: Compound concentration 1000.0 nM.
For data set [20], the target named is Mast/stem cell growth factor receptor Kit (Homo sapiens) (UniProt P10721). The settings on record: Compound concentration 1000.0 nM.
Data set [21] addresses Ephrin type-A receptor 1 (Homo sapiens) (UniProt P21709). The settings on record: Compound concentration 1000.0 nM.
Data set [22] has as its target Serine/threonine-protein kinase SIK1 (Homo sapiens) (UniProt P57059). The settings on record: Compound concentration 1000.0 nM.
The target in data set [23] is Tyrosine-protein kinase Blk (Homo sapiens) (UniProt P51451). The note with it: Compound concentration 1000.0 nM.
The target in data set [24] is Receptor tyrosine-protein kinase erbB-2 (Homo sapiens) (UniProt P04626). The settings on record: Compound concentration 1000.0 nM.
The target of data set [25] is Platelet-derived growth factor receptor beta (Homo sapiens) (UniProt P09619). The settings on record: Compound concentration 1000.0 nM.
The species named for another data set is Rattus norvegicus. The settings on record: Compound concentration 10.0 uM.
Data set [26] addresses Epithelial discoidin domain-containing receptor 1 (Homo sapiens) (UniProt Q08345). The settings on record: Compound concentration 1000.0 nM.
For data set [27], the target named is Calcium/calmodulin-dependent protein kinase type 1B (Homo sapiens) (UniProt Q6P2M8). The settings on record: Compound concentration 1000.0 nM.
Data set [28] concerns the target Tyrosine-protein kinase ZAP-70 (Homo sapiens) (UniProt P43403). The note with it: Compound concentration 1000.0 nM.
The target of data set [29] is Rhodopsin kinase GRK1 (Homo sapiens) (UniProt Q15835). The settings on record: Compound concentration 1000.0 nM.
Data set [30] deals with Aurora kinase A (Homo sapiens) (UniProt O14965). The note with it: Compound concentration 1000.0 nM.
Data set [31] concerns the target Serine/threonine-protein kinase SIK3 (Homo sapiens) (UniProt Q9Y2K2). The note with it: Compound concentration 1000.0 nM.
Data set [32] deals with Ephrin type-A receptor 4 (Homo sapiens) (UniProt P54764). The note with it: Compound concentration 1000.0 nM.
The target in data set [33] is Serine/threonine-protein kinase TAO3 (Homo sapiens) (UniProt Q9H2K8). The note with it: Compound concentration 1000.0 nM.
Data set [34] deals with Serine/threonine-protein kinase B-raf (Homo sapiens), P15056 [V600E]. The settings on record: Compound concentration 1000.0 nM.
Data set [35] deals with Discoidin domain-containing receptor 2 (Homo sapiens) (UniProt Q16832). The note with it: Compound concentration 1000.0 nM.
Data set [36] concerns the target Activin receptor type-1-like (Homo sapiens) (UniProt P37023). The settings on record: Compound concentration 1000.0 nM.
Data set [37] relates to Epidermal growth factor receptor (Homo sapiens), P00533 [UNDEFINED MUTATION]. The note with it: Compound concentration 1000.0 nM.
The target of data set [38] is Testis-specific serine/threonine-protein kinase 3 (Homo sapiens) (UniProt Q96PN8). The note with it: Compound concentration 1000.0 nM.
For data set [39], the system named is Epidermal growth factor receptor (Homo sapiens), P00533 [L861Q]. The settings on record: Compound concentration 1000.0 nM.
Data set [40] has as its target Mitogen-activated protein kinase kinase kinase kinase 1 (Homo sapiens) (UniProt Q92918). The note with it: Compound concentration 1000.0 nM.
Data set [41] addresses Mitogen-activated protein kinase 14 (Homo sapiens) (UniProt Q16539). The settings on record: Compound concentration 1000.0 nM.
For data set [42], the target named is Serine/threonine-protein kinase SBK1 (Homo sapiens) (UniProt Q52WX2). The note with it: Compound concentration 1000.0 nM.
Sequence of Serine/threonine-protein kinase SBK1 (Homo sapiens) (Q52WX2 whole entry): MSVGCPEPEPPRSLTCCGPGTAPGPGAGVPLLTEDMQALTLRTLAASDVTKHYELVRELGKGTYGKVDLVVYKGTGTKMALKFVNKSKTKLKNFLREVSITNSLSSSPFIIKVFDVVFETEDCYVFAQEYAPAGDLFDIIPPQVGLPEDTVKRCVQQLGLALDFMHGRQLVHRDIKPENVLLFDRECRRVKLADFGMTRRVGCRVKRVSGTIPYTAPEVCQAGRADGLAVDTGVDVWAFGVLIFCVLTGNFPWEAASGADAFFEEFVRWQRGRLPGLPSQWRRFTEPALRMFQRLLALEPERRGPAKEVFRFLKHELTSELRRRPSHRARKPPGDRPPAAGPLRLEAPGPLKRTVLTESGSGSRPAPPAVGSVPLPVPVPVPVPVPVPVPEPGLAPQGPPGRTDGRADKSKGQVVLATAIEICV

Sequence of Mast/stem cell growth factor receptor Kit (Homo sapiens) (P10721 whole entry): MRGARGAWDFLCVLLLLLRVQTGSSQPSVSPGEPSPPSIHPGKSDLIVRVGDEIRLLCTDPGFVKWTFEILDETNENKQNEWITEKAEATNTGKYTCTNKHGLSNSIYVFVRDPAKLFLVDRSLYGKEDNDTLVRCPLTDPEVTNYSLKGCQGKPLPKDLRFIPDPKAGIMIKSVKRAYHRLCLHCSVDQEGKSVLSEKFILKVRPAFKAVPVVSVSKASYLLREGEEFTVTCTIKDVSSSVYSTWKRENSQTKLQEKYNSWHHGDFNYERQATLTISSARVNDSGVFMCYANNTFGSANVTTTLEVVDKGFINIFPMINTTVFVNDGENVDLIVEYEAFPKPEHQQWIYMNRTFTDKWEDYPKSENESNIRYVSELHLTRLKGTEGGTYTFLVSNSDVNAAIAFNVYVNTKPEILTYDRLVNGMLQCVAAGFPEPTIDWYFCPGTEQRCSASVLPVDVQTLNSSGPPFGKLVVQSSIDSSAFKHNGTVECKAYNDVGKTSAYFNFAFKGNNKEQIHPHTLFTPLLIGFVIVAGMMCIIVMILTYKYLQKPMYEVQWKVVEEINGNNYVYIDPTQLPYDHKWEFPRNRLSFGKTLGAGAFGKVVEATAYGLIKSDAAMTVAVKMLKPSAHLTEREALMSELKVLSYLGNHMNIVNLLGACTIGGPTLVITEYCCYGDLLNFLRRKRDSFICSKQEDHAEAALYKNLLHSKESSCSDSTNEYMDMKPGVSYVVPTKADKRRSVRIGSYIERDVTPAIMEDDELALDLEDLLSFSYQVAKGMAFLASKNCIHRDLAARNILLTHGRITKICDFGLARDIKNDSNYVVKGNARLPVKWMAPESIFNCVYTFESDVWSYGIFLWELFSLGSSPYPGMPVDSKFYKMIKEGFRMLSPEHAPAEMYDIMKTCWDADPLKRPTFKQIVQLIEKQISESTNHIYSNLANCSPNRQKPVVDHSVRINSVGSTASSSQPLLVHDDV
Sequence of Activin receptor type-1-like (Homo sapiens) (P37023 whole entry): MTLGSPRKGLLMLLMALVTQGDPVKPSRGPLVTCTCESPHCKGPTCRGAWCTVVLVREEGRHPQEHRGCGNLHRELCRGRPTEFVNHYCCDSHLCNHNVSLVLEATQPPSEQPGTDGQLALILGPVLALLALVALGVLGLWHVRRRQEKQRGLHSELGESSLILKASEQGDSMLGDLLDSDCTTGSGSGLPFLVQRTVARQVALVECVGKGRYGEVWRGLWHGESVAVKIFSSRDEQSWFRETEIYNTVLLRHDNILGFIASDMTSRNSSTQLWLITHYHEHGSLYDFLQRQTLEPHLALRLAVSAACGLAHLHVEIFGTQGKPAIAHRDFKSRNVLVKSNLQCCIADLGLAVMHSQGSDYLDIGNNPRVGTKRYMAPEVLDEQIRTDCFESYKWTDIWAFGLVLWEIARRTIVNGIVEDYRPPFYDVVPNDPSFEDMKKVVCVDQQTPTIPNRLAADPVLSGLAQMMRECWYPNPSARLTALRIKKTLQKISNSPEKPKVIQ
Sequence of Serine/threonine-protein kinase B-raf (Homo sapiens), P15056 [V600E] (P15056 whole entry V600E, the tested form may be a part): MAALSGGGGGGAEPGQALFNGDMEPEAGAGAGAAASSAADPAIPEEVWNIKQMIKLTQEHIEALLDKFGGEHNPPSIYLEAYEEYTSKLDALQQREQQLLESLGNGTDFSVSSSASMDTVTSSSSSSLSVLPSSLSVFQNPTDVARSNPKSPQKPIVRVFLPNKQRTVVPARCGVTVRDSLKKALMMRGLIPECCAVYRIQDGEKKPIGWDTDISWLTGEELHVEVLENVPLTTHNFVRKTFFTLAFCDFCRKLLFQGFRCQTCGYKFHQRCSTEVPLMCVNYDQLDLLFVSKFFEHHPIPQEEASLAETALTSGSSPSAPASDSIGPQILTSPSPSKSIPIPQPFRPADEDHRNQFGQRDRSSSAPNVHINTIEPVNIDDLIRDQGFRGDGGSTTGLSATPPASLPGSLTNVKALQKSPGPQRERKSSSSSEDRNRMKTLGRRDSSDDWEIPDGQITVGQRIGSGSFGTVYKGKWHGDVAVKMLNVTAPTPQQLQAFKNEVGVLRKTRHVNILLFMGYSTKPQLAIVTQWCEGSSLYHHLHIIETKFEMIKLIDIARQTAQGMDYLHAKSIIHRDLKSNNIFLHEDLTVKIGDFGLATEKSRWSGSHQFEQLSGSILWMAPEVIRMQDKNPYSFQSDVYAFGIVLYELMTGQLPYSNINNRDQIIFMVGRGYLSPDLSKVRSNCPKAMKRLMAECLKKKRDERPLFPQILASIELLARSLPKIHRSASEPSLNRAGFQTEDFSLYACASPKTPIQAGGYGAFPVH
Sequence of Serine/threonine-protein kinase Sgk1 (Homo sapiens) (O00141 whole entry, the tested form may be a part): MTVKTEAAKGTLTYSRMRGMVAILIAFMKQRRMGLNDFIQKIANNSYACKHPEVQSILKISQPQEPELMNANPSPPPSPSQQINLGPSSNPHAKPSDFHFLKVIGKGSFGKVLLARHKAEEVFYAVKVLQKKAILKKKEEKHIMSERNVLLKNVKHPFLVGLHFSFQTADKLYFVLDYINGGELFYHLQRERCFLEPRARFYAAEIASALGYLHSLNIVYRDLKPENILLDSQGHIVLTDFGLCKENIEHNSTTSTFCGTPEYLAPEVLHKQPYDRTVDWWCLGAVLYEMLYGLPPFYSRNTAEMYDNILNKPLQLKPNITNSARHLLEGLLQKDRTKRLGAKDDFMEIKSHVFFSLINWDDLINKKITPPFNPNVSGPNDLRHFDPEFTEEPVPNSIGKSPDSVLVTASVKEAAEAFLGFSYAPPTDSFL
Sequence of Epithelial discoidin domain-containing receptor 1 (Homo sapiens) (Q08345 whole entry, the tested form may be a part): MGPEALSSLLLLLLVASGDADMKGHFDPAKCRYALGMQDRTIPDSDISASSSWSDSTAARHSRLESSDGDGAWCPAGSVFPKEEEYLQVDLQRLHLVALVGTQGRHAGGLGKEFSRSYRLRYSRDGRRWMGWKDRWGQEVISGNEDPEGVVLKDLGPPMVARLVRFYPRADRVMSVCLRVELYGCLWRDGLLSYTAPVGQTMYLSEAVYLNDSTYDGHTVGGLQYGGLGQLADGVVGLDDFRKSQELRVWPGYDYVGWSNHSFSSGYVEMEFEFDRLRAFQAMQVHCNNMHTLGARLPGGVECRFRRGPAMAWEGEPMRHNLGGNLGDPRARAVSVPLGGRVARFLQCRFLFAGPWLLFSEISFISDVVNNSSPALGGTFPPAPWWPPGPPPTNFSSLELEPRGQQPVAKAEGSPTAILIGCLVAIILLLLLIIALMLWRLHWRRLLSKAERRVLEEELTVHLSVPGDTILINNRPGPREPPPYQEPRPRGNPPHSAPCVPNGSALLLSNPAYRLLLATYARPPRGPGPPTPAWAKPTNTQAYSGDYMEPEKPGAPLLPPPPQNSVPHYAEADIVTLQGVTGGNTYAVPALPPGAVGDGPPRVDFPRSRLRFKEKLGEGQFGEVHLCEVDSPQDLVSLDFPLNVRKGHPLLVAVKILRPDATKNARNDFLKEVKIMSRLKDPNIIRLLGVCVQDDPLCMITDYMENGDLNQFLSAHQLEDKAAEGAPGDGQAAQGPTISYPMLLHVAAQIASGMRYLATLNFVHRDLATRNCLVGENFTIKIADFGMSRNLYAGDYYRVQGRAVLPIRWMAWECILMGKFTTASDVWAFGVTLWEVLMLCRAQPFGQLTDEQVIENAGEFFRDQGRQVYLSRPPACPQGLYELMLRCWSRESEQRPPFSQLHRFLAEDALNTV
Sequence of Aurora kinase A (Homo sapiens) (O14965 whole entry): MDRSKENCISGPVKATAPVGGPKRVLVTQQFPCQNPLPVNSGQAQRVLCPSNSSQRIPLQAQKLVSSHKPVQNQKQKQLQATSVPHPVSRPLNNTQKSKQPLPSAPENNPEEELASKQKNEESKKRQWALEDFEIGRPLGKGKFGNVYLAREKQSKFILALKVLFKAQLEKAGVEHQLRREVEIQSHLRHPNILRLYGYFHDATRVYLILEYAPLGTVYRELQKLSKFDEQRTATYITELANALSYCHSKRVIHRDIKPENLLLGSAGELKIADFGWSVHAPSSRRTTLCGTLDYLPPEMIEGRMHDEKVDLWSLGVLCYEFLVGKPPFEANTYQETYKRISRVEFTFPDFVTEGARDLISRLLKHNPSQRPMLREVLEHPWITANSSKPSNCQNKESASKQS
Sequence of Calcium/calmodulin-dependent protein kinase type 1B (Homo sapiens) (Q6P2M8 whole entry): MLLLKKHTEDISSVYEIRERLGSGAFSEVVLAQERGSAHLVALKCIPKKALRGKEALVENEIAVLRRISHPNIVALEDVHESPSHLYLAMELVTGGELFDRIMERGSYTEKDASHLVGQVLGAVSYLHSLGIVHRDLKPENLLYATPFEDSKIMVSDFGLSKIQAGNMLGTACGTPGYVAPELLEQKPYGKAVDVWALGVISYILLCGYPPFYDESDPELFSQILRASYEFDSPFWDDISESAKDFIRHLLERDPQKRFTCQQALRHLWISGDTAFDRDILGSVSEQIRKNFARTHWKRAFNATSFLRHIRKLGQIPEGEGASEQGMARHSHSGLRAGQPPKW

Take `CC1=C(C#N)C(c2ccc3[nH]nc(C)c3c2)C(C#N)=C(C)N1` [BAY-474]: the inhibition in data set [1] was -7%; in [2] it was -3%; in data set [3], -10%; in data set [4], 10%; in data set [5], -1%; in data set [6], 15.6%. In addition, the inhibition was -2% in [7]; 2% in data set [8]; -5% in [9]; 0% in data set [11]; 3% in data set [12]; -7% in [13]. Also, the inhibition in [14] is -8%. Besides, the inhibition at 3 h, 10 µM in data set [10] is listed as -9% (not active).
In the case of `CC1=C(C#N)[C@@H](c2ccc3[nH]nc(C)c3c2)C(C#N)=C(c2ccc(Cl)cc2)N1` [BAY-827], the residual activity in data set [15] is 78%; in data set [16], 43.8%; in data set [17], 91.2%; in [18], 72.2%; in data set [19], 95.9%; in [20] it was 95.4%. Moreover, the residual activity in [21] was 100%; in data set [22], 100%; in data set [23], 100%; in data set [24], 100%; in data set [25] it was 100%; in data set [26] it was 84.5%. For the same compound, the residual activity is 98.5% in data set [27]; 85.4% in [28]; 65.5% in data set [29]; 100% in [30]; 100% in data set [31]; 96.4% in [32]. Further, the residual activity in data set [33] was 100%; in data set [34], 100%; in data set [35] it was 99.4%; in data set [36], 79%; in data set [37], 100%; in [38], 100%. For the same compound, the residual activity is 100% in data set [39], 93.1% in data set [40], 100% in [41] and 100% in data set [42]. Besides, in the data set listed under Rattus norvegicus, the inhibition is 69.5%.
